Reference: publication PMC11584656, “Viral sequence determines HLA-E-restricted T cell recognition of hepatitis B surface antigen” (Nature Communications, 2024)
Read-outs that look alike come from different tables or passages of the source.

How the values were obtained:
[1] = target: recombinant human HLA-E*01:03 (heavy chain with β2m), soluble, refolded; experiment: SPR
[2] = target: recombinant human HLA-E*01:03 (heavy chain with β2m), soluble, refolded; experiment: thermal shift assay (refolded pHLA-E*01:03 complexes); Tm of the same pHLA-E*01:03 complexes as in the SPR stability assay (Fig. 1c); triplicate
[3] = tested on: THP-1-E cells (HLA-E*01:01) pulsed with peptide; experiment: IFN-γ ELISpot cross-reactivity screen with HLA-E binding peptides; format: cell-based, human; details: 1 nM ImmTAV, THP-1-E cells pulsed with 10 μg/mL peptide, average of 2 HBV-naïve donor PBMC each in triplicate
[4] = tested on: THP-1-E cells (HLA-E*01:03) pulsed with peptide; experiment: as above; format: cell-based, human; details: 1 nM ImmTAV, THP-1-E cells pulsed with 10 μg/mL peptide, average of 2 HBV-naïve donor PBMC each in triplicate
HLA-E*01:03 [5] = target: T1, HLA-E*01:03 (Homo sapiens, UniProt P13747); format: binding; details: for Tm (°C): Figure 1a source data, 60:1 peptide excess; for Thermal stability Tm (°C): SYPRO Orange, 22-95 °C at 1 °C/min, mean ± SD of triplicates, SD
[6] = target: single chain β2m-HLA-E*01:01 on transduced cells
[7] = target: single chain β2m-HLA-E*01:03 on transduced cells
[8] = target: recombinant human HLA-E*01:03 (heavy chain with β2m), soluble, refolded; experiment: thermal shift assay (peptide screen)
[9] = tested on: K562 cells transduced with single chain β2m-HLA-E*01:03; experiment: K562 cell pulsing assay, HLA-E surface upregulation (3D12, flow cytometry); format: cell-based, human
[10] = tested on: K562 cells transduced with single chain β2m-HLA-E*01:01; experiment: as above; format: cell-based, human
HLA-E*01:03 [11] = target: T1, HLA-E*01:03; format: binding; parameters: made in house; details: refolded complexes
HLA-E*01:03 [12] = target: T1, HLA-E*01:03; experiment: pHLA-E stability (t1/2) by SPR monitoring ILT2 binding; parameters: made in house; details: SPR 25 °C

## A1 signal peptide
[1]
  t1/2 of the peptide-HLA-E complex: 2 h
[2]
  Tm of the peptide-HLA-E complex: 49 °C

## ALSWRLPLL [Mimetic peptide 1]
[3]
  HLA-E*01:01 INF-γ release (SFU ± SD): 61.6±21.8 SFU
[4]
  HLA-E*01:03 INF-γ release (SFU ± SD): 54.1±15.6 SFU

## CIPIPSSWAF [HBV Env peptide 312-321]
HLA-E*01:03 [5]; replicate 1
  Tm (°C): 42.2 °C
HLA-E*01:03 [5]; replicate 2
  Tm (°C): 41.7 °C
HLA-E*01:03 [5]; replicate 3
  Tm (°C): 42.2 °C
HLA-E*01:03 [5]
  Thermal stability Tm (°C): 42.1±0.3 °C

## Cw3 signal peptide
[1]
  t1/2 of the peptide-HLA-E complex: 2 h
[2]
  Tm of the peptide-HLA-E complex: 49 °C

## FIIFLFILL [HBV Env peptide 243-251]
HLA-E*01:03 [5]; replicate 1
  Tm (°C): 38.9 °C
HLA-E*01:03 [5]; replicate 2
  Tm (°C): 39.2 °C
HLA-E*01:03 [5]; replicate 3
  Tm (°C): 39.5 °C
HLA-E*01:03 [5]
  Thermal stability Tm (°C): 39.3±0.3 °C

## GMLPVCPLL [HBV Env peptide 265-273]
HLA-E*01:03 [5]; replicate 1
  Tm (°C): 45.1 °C
HLA-E*01:03 [5]; replicate 2
  Tm (°C): 45.1 °C
HLA-E*01:03 [5]; replicate 3
  Tm (°C): 45.5 °C
HLA-E*01:03 [5]
  Thermal stability Tm (°C): 45.3±0.3 °C

## HBV Env_(371-379) (S3N) peptide …
[1]
  t1/2 of the peptide-HLA-E complex: 0.658 h
[2]
  Tm of the peptide-HLA-E complex: 47 °C
[6]
  peptide concentration at which IFN-γ responses (ELISPOT) were detected: peptide titrated on THP-1-E*01:01 cells, PBMC, 1 nM a09b08 ImmTAV: 4.9 µg/mL
[7]
  peptide concentration at which IFN-γ responses (ELISPOT) were detected: peptide titrated on THP-1-E*01:03 cells, PBMC, 1 nM a09b08 ImmTAV: 0.2 µg/mL

## HBV Env_(371-379) peptide …
[1]
  t1/2 of the peptide-HLA-E complex: 0.112 h
[2]
  Tm of the peptide-HLA-E complex: 44 °C
[8]
  Tm of the peptide-HLA-E complex: 47.1 °C
[7]
  peptide concentration at which IFN-γ responses (ELISPOT) were detected: peptide titrated on THP-1-E*01:03 cells, PBMC, 1 nM a09b08 ImmTAV: 8.7 µg/mL

## ILPSDAPVL [MTB MmmpL875-83]
[3]
  HLA-E*01:01 INF-γ release (SFU ± SD): 52.6±17.39 SFU
[4]
  HLA-E*01:03 INF-γ release (SFU ± SD): 54.8±17.4 SFU

## ILQRFLPLI [Mimetic peptide 2]
[3]
  HLA-E*01:01 INF-γ release (SFU ± SD): 60.5±20.8 SFU
[4]
  HLA-E*01:03 INF-γ release (SFU ± SD): 48.6±29.1 SFU

## IMAPRTLVL [Leader A34]
[3]
  HLA-E*01:01 INF-γ release (SFU ± SD): 55.5±6.8 SFU
[4]
  HLA-E*01:03 INF-γ release (SFU ± SD): 54.5±18.9 SFU

## LLPRRGPRL [HCV Core]
[3]
  HLA-E*01:01 INF-γ release (SFU ± SD): 61.1±21.8 SFU
[4]
  HLA-E*01:03 INF-γ release (SFU ± SD): 60±30.1 SFU

## QMRPVSRVL [Hsp60 signal peptide]
[3]
  HLA-E*01:01 INF-γ release (SFU ± SD): 43.8±6.36 SFU
[4]
  HLA-E*01:03 INF-γ release (SFU ± SD): 41.8±9.9 SFU

## RLPAKAPLL [Mtb RLPA]
[9]
  cell surface HLA-E expression after peptide pulsing: increased cell surface HLA-E expression
[3]
  HLA-E*01:01 INF-γ release (SFU ± SD): 67.1±12.6 SFU
[4]
  HLA-E*01:03 INF-γ release (SFU ± SD): 72.1±12.8 SFU
[10]
  cell surface HLA-E expression after peptide pulsing: increased cell surface HLA-E expression

## RWMCLRRFI [HBV Env peptide 236-244]
HLA-E*01:03 [5]; replicate 1
  Tm (°C): 37.9 °C
HLA-E*01:03 [5]; replicate 2
  Tm (°C): 37.9 °C
HLA-E*01:03 [5]; replicate 3
  Tm (°C): 38.4 °C
HLA-E*01:03 [5]
  Thermal stability Tm (°C): 38.2±0.3 °C

## SSWAFARFL [HBV Env peptide 317-325]
HLA-E*01:03 [5]; replicate 1
  Tm (°C): 40.7 °C
HLA-E*01:03 [5]; replicate 2
  Tm (°C): 40.6 °C
HLA-E*01:03 [5]; replicate 3
  Tm (°C): 40.7 °C
HLA-E*01:03 [5]
  Thermal stability Tm (°C): 40.7±0.1 °C

## VMAPQALLL [Leader Cw16]
[3]
  HLA-E*01:01 INF-γ release (SFU ± SD): 33.3±16.4 SFU
[4]
  HLA-E*01:03 INF-γ release (SFU ± SD): 49.1±19.2 SFU

## VMAPRALLL [Leader Cw7]
[3]
  HLA-E*01:01 INF-γ release (SFU ± SD): 30.3±12.9 SFU
[4]
  HLA-E*01:03 INF-γ release (SFU ± SD): 44.1±22.1 SFU

## VMAPRTLFL [Leader G]
[3]
  HLA-E*01:01 INF-γ release (SFU ± SD): 44.8±19.8 SFU
[4]
  HLA-E*01:03 INF-γ release (SFU ± SD): 48.1±19.7 SFU

## VMAPRTLLL [Leader A1]
HLA-E*01:03 [11]; thermal shift assay, mean ± SD of triplicates
  pHLA-E*01:03 Tm: 49 °C
HLA-E*01:03 [11]; first well of three
  pHLA-E*01:03 (Tm °C): 49.62 °C
HLA-E*01:03 [11]; second well of three
  pHLA-E*01:03 (Tm °C): 48.27 °C
HLA-E*01:03 [11]; third well of three
  pHLA-E*01:03 (Tm °C): 48.53 °C
[3]
  HLA-E*01:01 INF-γ release (SFU ± SD): 67.8±14.9 SFU
[4]
  HLA-E*01:03 INF-γ release (SFU ± SD): 65.6±28.4 SFU
HLA-E*01:03 [12]; Run 1
  pHLA-E*01:03 (t1/2 min): 105 min
HLA-E*01:03 [12]; Run 2
  pHLA-E*01:03 (t1/2 min): 125 min
HLA-E*01:03 [12]; Run 3
  pHLA-E*01:03 (t1/2 min): 127 min
HLA-E*01:03 [12]; rounded value
  pHLA-E*01:03 t1/2: 2 h

## VMAPRTLVL [Leader A2]
[3]
  HLA-E*01:01 INF-γ release (SFU ± SD): 50.5±6.8 SFU
[4]
  HLA-E*01:03 INF-γ release (SFU ± SD): 64.5±9.8 SFU

## VMAPRTVLL [Leader B7]
[3]
  HLA-E*01:01 INF-γ release (SFU ± SD): 43.3±7.8 SFU
[4]
  HLA-E*01:03 INF-γ release (SFU ± SD): 48.7±7.3 SFU

## VMPPRTLLL [Leader A80]
[3]
  HLA-E*01:01 INF-γ release (SFU ± SD): 44.8±8.6 SFU
[4]
  HLA-E*01:03 INF-γ release (SFU ± SD): 61.1±14.3 SFU

## VTAPRTLLL [Leader B13]
[3]
  HLA-E*01:01 INF-γ release (SFU ± SD): 53±13.4 SFU
[4]
  HLA-E*01:03 INF-γ release (SFU ± SD): 56±17.9 SFU

## VTAPRTVLL [Leader B15]
[3]
  HLA-E*01:01 INF-γ release (SFU ± SD): 42.8±13.4 SFU
[4]
  HLA-E*01:03 INF-γ release (SFU ± SD): 40±17.4 SFU
